Results published in PubChem BioAssay (NCI).
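Tested at 5 concentrations; 48 h exposure; 96-well plates; endpoints linearly interpolated, else capped at highest concentration. GI50: concentration for 50% inhibition of growth. TGI: total growth inhibition.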

What was measured:
Test in all cases: NCI tumour cell line growth inhibition, 48 h
HCT-116 colon = system: HCT-116 colon
UACC-257 melanoma = system: UACC-257 melanoma
MCF7 breast = system: MCF7 breast
MDA-MB-468 breast = system: MDA-MB-468 breast
SF-539 CNS = system: SF-539 CNS
NCI-H226 lung = system: NCI-H226 lung
PC-3 prostate = system: PC-3 prostate
A549 NSCLC = system: A549 NSCLC
OVCAR-4 ovarian = system: OVCAR-4 ovarian
SK-MEL-28 melanoma = system: SK-MEL-28 melanoma
HOP-92 NSCLC = system: HOP-92 NSCLC
SK-MEL-5 melanoma = system: SK-MEL-5 melanoma
RXF 393 renal = system: RXF 393 renal
SF-295 CNS = system: SF-295 CNS
NCI-H522 lung = system: NCI-H522 lung
SF-268 CNS = system: SF-268 CNS
HCC-2998 colon = system: HCC-2998 colon
NCI-H460 lung = system: NCI-H460 lung
SN12C renal = system: SN12C renal
ACHN renal = system: ACHN renal
OVCAR-3 ovarian = system: OVCAR-3 ovarian
HL-60(TB) leukemia = system: HL-60(TB) leukemia
IGROV1 ovarian = system: IGROV1 ovarian
HS 578T breast = system: HS 578T breast
K-562 leukemia = system: K-562 leukemia
RPMI-8226 leukemia = system: RPMI-8226 leukemia
U251 CNS = system: U251 CNS
SW-620 colon = system: SW-620 colon
HCT-15 colon = system: HCT-15 colon
UO-31 renal = system: UO-31 renal
M14 melanoma = system: M14 melanoma
KM12 colon = system: KM12 colon
HT29 colon = system: HT29 colon
COLO 205 colon = system: COLO 205 colon
MOLT-4 leukemia = system: MOLT-4 leukemia
MDA-MB-231 breast = system: MDA-MB-231 breast
HOP-62 NSCLC = system: HOP-62 NSCLC
NCI-H23 lung = system: NCI-H23 lung
SK-MEL-2 melanoma = system: SK-MEL-2 melanoma
SNB-19 CNS = system: SNB-19 CNS
TK-10 renal = system: TK-10 renal
A498 renal = system: A498 renal
SK-OV-3 ovarian = system: SK-OV-3 ovarian
CAKI-1 renal = system: CAKI-1 renal
OVCAR-5 ovarian = system: OVCAR-5 ovarian
SR leukemia = system: SR leukemia
BT-549 breast = system: BT-549 breast
CCRF-CEM leukemia = system: CCRF-CEM leukemia
DU-145 prostate = system: DU-145 prostate
UACC-62 melanoma = system: UACC-62 melanoma
OVCAR-8 ovarian = system: OVCAR-8 ovarian
EKVX NSCLC = system: EKVX NSCLC
T-47D breast = system: T-47D breast
MALME-3M melanoma = system: MALME-3M melanoma
SNB-75 CNS = system: SNB-75 CNS
MDA-MB-435 = system: MDA-MB-435
LOX IMVI melanoma = system: LOX IMVI melanoma
786-0 renal = system: 786-0 renal

O=C1NC(=NC2CCCCCC2)N/C1=C\c1ccc2ncoc2c1
GI50 (HCT-116 colon): 1.92 µM
TGI (HCT-116 colon): 10.9 µM
GI50 (UACC-257 melanoma): 5.95 µM
TGI (UACC-257 melanoma): 23 µM
GI50 (MCF7 breast): 3.58 µM
TGI (MCF7 breast): 30.2 µM
GI50 (MDA-MB-468 breast): 2.44 µM
TGI (MDA-MB-468 breast): 12.6 µM
GI50 (SF-539 CNS): 1.01 µM
TGI (SF-539 CNS): 5.75 µM
GI50 (NCI-H226 lung): 2.63 µM
TGI (NCI-H226 lung): > 100 µM
GI50 (PC-3 prostate): 8.53 µM
TGI (PC-3 prostate): 60.6 µM
GI50 (A549 NSCLC): 3.01 µM
TGI (A549 NSCLC): 32.1 µM
GI50 (OVCAR-4 ovarian): 12.4 µM
TGI (OVCAR-4 ovarian): 53.4 µM
GI50 (SK-MEL-28 melanoma): 3.5 µM
TGI (SK-MEL-28 melanoma): 14.1 µM
GI50 (HOP-92 NSCLC): 6.58 µM
TGI (HOP-92 NSCLC): 58.6 µM
GI50 (SK-MEL-5 melanoma): 3.66 µM
TGI (SK-MEL-5 melanoma): 14.8 µM
GI50 (RXF 393 renal): 2.02 µM
TGI (RXF 393 renal): 5.32 µM
GI50 (SF-295 CNS): 7.52 µM
TGI (SF-295 CNS): > 100 µM
GI50 (NCI-H522 lung): 1.27 µM
TGI (NCI-H522 lung): 15 µM
GI50 (SF-268 CNS): 5.61 µM
TGI (SF-268 CNS): 38.8 µM
GI50 (HCC-2998 colon): 12.3 µM
TGI (HCC-2998 colon): 27.6 µM
GI50 (NCI-H460 lung): 4.08 µM
TGI (NCI-H460 lung): 15.6 µM
GI50 (SN12C renal): 2.89 µM
TGI (SN12C renal): 18.1 µM
GI50 (ACHN renal): 2.68 µM
TGI (ACHN renal): 10.1 µM
GI50 (OVCAR-3 ovarian): 2.13 µM
TGI (OVCAR-3 ovarian): 9.17 µM
GI50 (HL-60(TB) leukemia): 3.69 µM
TGI (HL-60(TB) leukemia): 19.3 µM
GI50 (IGROV1 ovarian): 4.35 µM
TGI (IGROV1 ovarian): 34.1 µM
GI50 (HS 578T breast): 2.87 µM
TGI (HS 578T breast): 26.5 µM
GI50 (K-562 leukemia): 4.97 µM
TGI (K-562 leukemia): 37.2 µM
GI50 (RPMI-8226 leukemia): 5.22 µM
TGI (RPMI-8226 leukemia): 31.7 µM
GI50 (U251 CNS): 3.54 µM
TGI (U251 CNS): 68.9 µM
GI50 (SW-620 colon): 3.27 µM
TGI (SW-620 colon): 18.9 µM
GI50 (HCT-15 colon): 3.41 µM
TGI (HCT-15 colon): 26.4 µM
GI50 (UO-31 renal): 3.31 µM
TGI (UO-31 renal): 9.46 µM
GI50 (M14 melanoma): 8.62 µM
TGI (M14 melanoma): 25.2 µM
GI50 (KM12 colon): 3.83 µM
TGI (KM12 colon): 19.1 µM
GI50 (HT29 colon): 9.36 µM
TGI (HT29 colon): 37.8 µM
GI50 (COLO 205 colon): 3.14 µM
TGI (COLO 205 colon): 14.2 µM
GI50 (MOLT-4 leukemia): 3.51 µM
TGI (MOLT-4 leukemia): 22 µM
GI50 (MDA-MB-231 breast): 11.3 µM
TGI (MDA-MB-231 breast): 58.4 µM
GI50 (HOP-62 NSCLC): 3.3 µM
TGI (HOP-62 NSCLC): 45.6 µM
GI50 (NCI-H23 lung): 3.16 µM
TGI (NCI-H23 lung): 18.7 µM
GI50 (SK-MEL-2 melanoma): 2.86 µM
TGI (SK-MEL-2 melanoma): 9.46 µM
GI50 (SNB-19 CNS): 2.43 µM
TGI (SNB-19 CNS): 44.6 µM
GI50 (TK-10 renal): 3.86 µM
TGI (TK-10 renal): > 100 µM
GI50 (A498 renal): 2.09 µM
TGI (A498 renal): 8.84 µM
GI50 (SK-OV-3 ovarian): 2.71 µM
TGI (SK-OV-3 ovarian): 62.9 µM
GI50 (CAKI-1 renal): 2.61 µM
TGI (CAKI-1 renal): 12.9 µM
GI50 (OVCAR-5 ovarian): 4.33 µM
TGI (OVCAR-5 ovarian): 68.4 µM
GI50 (SR leukemia): 1.97 µM
TGI (SR leukemia): 8.09 µM
GI50 (BT-549 breast): 1.94 µM
TGI (BT-549 breast): 12.3 µM
GI50 (CCRF-CEM leukemia): 2.87 µM
TGI (CCRF-CEM leukemia): 16.2 µM
GI50 (DU-145 prostate): 4.02 µM
TGI (DU-145 prostate): 17.1 µM
GI50 (UACC-62 melanoma): 2.74 µM
TGI (UACC-62 melanoma): 12 µM
GI50 (OVCAR-8 ovarian): 3.55 µM
TGI (OVCAR-8 ovarian): 18 µM
GI50 (EKVX NSCLC): 8.68 µM
TGI (EKVX NSCLC): 49.4 µM
GI50 (T-47D breast): 2.87 µM
TGI (T-47D breast): 63.2 µM
GI50 (MALME-3M melanoma): 10.5 µM
TGI (MALME-3M melanoma): 24.4 µM
GI50 (SNB-75 CNS): 0.757 µM
TGI (SNB-75 CNS): 12.3 µM
GI50 (MDA-MB-435): 6.27 µM
TGI (MDA-MB-435): 21.4 µM
GI50 (LOX IMVI melanoma): 4.33 µM
TGI (LOX IMVI melanoma): 20.9 µM
GI50 (786-0 renal): 5.02 µM
TGI (786-0 renal): 47 µM
